In patent publication US11160796B2, “Anti-androgens for the treatment of non-metastatic castration-resistant prostate cancer” (priority 2017, dated 2021):
“Also recorded” adds a separate entry of the source.

Tests used:
[1] = Incubation with liver S9 fraction and liver microsomes; format: in vitro ADME; conditions: incubated for up to 120 minutes; rat, dog, and human
Description: The primary in vivo metabolites were formed by N-demethylation and amide hydrolysis in the rat and dog.

[2] = Single-dose and repeat-dose toxicology studies in male rats
Description: Single-dose and repeat-dose toxicology studies up to 13 weeks of dosing have been conducted in male Sprague Dawley (SD) rats and male Beagle dogs (repeat-dose studies only).

[3] = Dedicated QT study in patients with CRPC; format: in vivo, human; conditions: 240 mg once daily
Description: There was no difference greater than 20 ms in the mean QT interval change from baseline, based on the Fridericia correction method, across all timepoints at steady-state.
The maximum mean QTcF change from baseline was 12.4 ms (2-sided 90% upper CI: 16.0 ms).

[4] = biological target: T1, CYP2C8 (Homo sapiens, UniProt P10632); assay: Contribution of CYP2C8 in the metabolism of apalutamide; format: in vivo; conditions: estimated
T1 construct: from tissue; host or cells: human subjects, in vivo (clinical pharmacology)
T1 sequence (P10632 1-490): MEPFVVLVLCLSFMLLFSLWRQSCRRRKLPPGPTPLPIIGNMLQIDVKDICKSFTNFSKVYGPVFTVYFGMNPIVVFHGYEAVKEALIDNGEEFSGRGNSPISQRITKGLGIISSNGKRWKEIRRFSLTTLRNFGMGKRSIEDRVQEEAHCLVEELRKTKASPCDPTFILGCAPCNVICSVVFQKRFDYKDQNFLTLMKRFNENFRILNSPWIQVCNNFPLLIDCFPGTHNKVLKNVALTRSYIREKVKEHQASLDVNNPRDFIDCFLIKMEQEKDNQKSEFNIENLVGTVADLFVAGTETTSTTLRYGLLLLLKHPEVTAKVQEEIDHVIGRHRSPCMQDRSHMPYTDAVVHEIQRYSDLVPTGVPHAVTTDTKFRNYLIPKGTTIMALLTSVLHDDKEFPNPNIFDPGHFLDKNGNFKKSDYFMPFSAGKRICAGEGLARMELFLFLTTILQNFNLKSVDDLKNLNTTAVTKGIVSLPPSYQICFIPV

[5] = biological target: T2, CYP3A4 (Homo sapiens, UniProt P08684); assay: Contribution of CYP3A4 in the metabolism of apalutamide; format: in vivo; conditions: estimated
T2 construct: from tissue; host or cells: human subjects, in vivo (clinical pharmacology)

[6] = biological target: T1, CYP2C8; assay: Drug-drug interaction study, cocktail approach: CYP2C8 substrate; conditions: in vivo
[7] = tested on: BCRP/OATP1B1; assay: Drug-drug interaction study, cocktail approach: rosuvastatin; parameters: species or system human; conditions: in vivo
[8] = tested on: organic cation transporter 2 (OCT2), organic anion transporter 3 (OAT3) and multidrug and toxin extrusions (MATEs); assay: In vitro transporter inhibition: OCT2, OAT3, MATEs; format: in vitro ADME
[9] = Bacterial reverse mutation (Ames) assay
[10] = tested on: LNCaP/AR cells; conditions: literature; cited from earlier work
[11] = tested on: castration-resistant LNCaP/AR-Luc xenograft model; conditions: non-castrate hormone-sensitive and bicalutamide-resistant models (Clegg et al.); cited from earlier work
[12] = tested on: CYP1A2 and CYP2D6; assay: In vitro effect on CYP1A2 and CYP2D6; conditions: therapeutically relevant concentrations
[13] = biological target: T3, organic anion transporter 1 (OAT1) (Homo sapiens, UniProt Q4U2R8); assay: In vitro transporter inhibition: OAT1
T3 sequence (Q4U2R8 1-563): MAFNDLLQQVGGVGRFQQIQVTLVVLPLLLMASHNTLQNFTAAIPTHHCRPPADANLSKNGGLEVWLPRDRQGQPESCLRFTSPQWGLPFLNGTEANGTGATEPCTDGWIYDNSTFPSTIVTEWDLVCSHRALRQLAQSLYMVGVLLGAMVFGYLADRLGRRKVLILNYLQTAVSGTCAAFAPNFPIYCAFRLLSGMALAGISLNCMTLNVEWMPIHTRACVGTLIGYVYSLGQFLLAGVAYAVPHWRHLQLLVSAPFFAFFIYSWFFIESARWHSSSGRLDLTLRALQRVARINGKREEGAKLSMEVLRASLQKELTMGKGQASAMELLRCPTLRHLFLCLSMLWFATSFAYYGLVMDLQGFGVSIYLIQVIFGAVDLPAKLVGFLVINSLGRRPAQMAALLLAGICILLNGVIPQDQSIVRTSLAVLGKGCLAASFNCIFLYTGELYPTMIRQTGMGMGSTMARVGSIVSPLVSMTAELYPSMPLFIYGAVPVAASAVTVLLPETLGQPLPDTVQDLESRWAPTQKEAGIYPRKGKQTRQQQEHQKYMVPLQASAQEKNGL

[14] = biological target: P-gp (Homo sapiens, UniProt P08183); assay: In vitro transporter substrate assessment: P-gp
[15] = Single oral administration of 14C-labeled apalutamide 240 mg (metabolite profile, excretion)

T2 sequence (P08684 whole entry): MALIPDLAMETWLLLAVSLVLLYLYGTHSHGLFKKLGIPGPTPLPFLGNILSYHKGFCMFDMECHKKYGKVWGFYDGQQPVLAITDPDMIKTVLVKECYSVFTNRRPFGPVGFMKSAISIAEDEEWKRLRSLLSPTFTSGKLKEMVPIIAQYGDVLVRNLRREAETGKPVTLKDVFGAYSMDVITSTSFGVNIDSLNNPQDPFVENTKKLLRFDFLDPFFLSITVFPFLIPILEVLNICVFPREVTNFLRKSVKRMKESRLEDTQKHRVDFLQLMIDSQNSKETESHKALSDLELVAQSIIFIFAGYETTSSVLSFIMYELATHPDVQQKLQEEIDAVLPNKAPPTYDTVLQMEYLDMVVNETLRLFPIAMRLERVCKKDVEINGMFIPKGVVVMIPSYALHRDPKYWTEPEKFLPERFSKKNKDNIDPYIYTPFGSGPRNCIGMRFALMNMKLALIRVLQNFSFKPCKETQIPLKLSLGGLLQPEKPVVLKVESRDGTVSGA
P-gp, sequence (P08183 whole entry): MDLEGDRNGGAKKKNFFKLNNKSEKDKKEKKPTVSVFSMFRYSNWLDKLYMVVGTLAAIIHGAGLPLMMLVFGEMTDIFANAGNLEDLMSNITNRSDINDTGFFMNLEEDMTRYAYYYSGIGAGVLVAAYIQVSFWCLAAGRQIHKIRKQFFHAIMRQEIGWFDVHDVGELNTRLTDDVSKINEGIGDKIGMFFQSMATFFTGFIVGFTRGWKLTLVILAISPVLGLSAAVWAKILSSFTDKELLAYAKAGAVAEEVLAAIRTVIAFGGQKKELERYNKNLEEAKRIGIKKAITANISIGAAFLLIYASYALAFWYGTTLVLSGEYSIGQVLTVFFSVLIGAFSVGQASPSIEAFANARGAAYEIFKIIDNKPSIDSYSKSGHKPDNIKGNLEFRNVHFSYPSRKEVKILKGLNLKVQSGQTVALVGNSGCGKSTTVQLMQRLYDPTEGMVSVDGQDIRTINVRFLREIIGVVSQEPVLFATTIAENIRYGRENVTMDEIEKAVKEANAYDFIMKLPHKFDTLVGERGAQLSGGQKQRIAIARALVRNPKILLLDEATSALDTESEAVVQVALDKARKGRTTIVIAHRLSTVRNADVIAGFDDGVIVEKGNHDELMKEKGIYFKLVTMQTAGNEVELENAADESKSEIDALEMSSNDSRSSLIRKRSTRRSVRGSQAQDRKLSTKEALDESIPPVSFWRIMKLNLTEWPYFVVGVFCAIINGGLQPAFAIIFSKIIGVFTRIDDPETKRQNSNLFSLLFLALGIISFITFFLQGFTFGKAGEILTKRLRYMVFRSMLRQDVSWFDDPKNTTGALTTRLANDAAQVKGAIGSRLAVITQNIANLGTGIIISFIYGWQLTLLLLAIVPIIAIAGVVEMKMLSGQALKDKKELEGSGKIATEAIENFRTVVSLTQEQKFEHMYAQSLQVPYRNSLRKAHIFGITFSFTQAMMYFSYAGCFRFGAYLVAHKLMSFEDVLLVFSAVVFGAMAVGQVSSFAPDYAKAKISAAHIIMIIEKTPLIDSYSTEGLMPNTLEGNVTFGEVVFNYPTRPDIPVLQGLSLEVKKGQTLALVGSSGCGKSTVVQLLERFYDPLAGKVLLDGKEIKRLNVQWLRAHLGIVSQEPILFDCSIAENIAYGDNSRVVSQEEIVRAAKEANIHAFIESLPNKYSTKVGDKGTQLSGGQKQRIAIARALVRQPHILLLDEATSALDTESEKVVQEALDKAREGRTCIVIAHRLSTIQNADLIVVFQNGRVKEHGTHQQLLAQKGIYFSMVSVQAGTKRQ

Compound: CNC(=O)c1ccc(N2C(=S)N(c3cnc(C#N)c(C(F)(F)F)c3)C(=O)C23CCC3)cc1F [apalutamide, 4-[7-(6-cyano-5-trifluoromethylpyridin-3-yl)-8-oxo-6-thioxo-5,7-diazaspiro[3.4]oct-5-yl]-2-fluoro-N-methylbenzamide]
- turnover [1]: very low turnover
- well tolerated dose ([2]; 13-weeks study, once daily oral gavage, male SD rats): up to 100 mg/kg/day
- dose with reproductive system findings (atrophy, aspermia/hypospermia, degeneration, hyperplasia or hypertrophy) ([2]; male, Sprague Dawley, rat, in vivo): > 25 mg/kg/day
- NOAEL at 13 weeks ([2]; male, Sprague-Dawley, rat, in vivo): 100 mg/kg/day
- increase in cholesterol from controls ([2]; rat, in vivo, 150 mg/kg/day): greater than 200%
- maximum mean QTcF change from baseline ([3]; 45 patients with CRPC): 12.4 ms
- difference in mean QT interval change from baseline (Fridericia correction) ([3]; all timepoints at steady-state): ≤ 20 ms
- contribution of CYP2C8 in the metabolism ([4]; at steady-state): 40%
- contribution of CYP2C8 in the metabolism ([4]; following single dose): 58%
- contribution of CYP3A4 in the metabolism ([5]; at steady-state): 37%
- contribution of CYP3A4 in the metabolism ([5]; following single dose): 13%
- changes in exposure to the CYP2C8 substrate [6]: did not cause clinically meaningful changes
- BCRP/OATP1B1 inducer clinically [7]: weak and weak inducer
- impact on Cmax of rosuvastatin [7]: no impact
- inhibition of OCT2, OAT3 and MATEs [8]: cannot be excluded; also recorded: inhibit
- mutations in the bacterial reverse mutation (Ames) assay [9]: did not induce mutations
- agonist activity in the context of AR overexpression [10]: lacks the partial agonist activity
- tumor regression in human prostate cancer xenograft models [11]: partial or complete tumor regression
- effect on CYP1A2 and CYP2D6 [12]: do not affect
- inhibition of OAT1 [13]: No in vitro inhibition; also recorded: do not inhibit
- substrate for P-gp [14]: substrates for P-gp
- share of the total 14C-AUC in plasma ([15]; single oral 240 mg): 45%
- % of dose in feces as this compound ([15]; up to 70 days): 1.5%
- % of dose in urine as this compound ([15]; up to 70 days): 1.2%
- radioactivity recovered in feces ([15]; up to 70 days): 24%
- radioactivity recovered in urine ([15]; up to 70 days): 65%
- radioactivity recovered ([15]; up to 70 days post-dose): 89%
